From ChEMBL document CHEMBL5038598, “Design and Synthesis of Pyrrolo[2,3-d]pyrimidine-Derived Leucine-Rich Repeat Kinase 2 (LRRK2) Inhibitors Using a Checkpoint Kinase 1 (CHK1)-Derived Crystallographic Surrogate” (J Med Chem, 2021)
pIC50, pKd: −log10 of the molar value. Active and inactive are the calls of the source. No cut-off for these calls is given here.

How the values were obtained:
[1] = biological target: T1, Leucine-rich repeat serine/threonine-protein kinase 2 (Homo sapiens, UniProt Q5S007); assay: Inhibition of LRRK2-pSer935 in LRRK2 WT expressing human HEK293 cells and measured after 48 hrs by ICW assay; type: cell-based
T1 sequence (Q5S007 whole entry): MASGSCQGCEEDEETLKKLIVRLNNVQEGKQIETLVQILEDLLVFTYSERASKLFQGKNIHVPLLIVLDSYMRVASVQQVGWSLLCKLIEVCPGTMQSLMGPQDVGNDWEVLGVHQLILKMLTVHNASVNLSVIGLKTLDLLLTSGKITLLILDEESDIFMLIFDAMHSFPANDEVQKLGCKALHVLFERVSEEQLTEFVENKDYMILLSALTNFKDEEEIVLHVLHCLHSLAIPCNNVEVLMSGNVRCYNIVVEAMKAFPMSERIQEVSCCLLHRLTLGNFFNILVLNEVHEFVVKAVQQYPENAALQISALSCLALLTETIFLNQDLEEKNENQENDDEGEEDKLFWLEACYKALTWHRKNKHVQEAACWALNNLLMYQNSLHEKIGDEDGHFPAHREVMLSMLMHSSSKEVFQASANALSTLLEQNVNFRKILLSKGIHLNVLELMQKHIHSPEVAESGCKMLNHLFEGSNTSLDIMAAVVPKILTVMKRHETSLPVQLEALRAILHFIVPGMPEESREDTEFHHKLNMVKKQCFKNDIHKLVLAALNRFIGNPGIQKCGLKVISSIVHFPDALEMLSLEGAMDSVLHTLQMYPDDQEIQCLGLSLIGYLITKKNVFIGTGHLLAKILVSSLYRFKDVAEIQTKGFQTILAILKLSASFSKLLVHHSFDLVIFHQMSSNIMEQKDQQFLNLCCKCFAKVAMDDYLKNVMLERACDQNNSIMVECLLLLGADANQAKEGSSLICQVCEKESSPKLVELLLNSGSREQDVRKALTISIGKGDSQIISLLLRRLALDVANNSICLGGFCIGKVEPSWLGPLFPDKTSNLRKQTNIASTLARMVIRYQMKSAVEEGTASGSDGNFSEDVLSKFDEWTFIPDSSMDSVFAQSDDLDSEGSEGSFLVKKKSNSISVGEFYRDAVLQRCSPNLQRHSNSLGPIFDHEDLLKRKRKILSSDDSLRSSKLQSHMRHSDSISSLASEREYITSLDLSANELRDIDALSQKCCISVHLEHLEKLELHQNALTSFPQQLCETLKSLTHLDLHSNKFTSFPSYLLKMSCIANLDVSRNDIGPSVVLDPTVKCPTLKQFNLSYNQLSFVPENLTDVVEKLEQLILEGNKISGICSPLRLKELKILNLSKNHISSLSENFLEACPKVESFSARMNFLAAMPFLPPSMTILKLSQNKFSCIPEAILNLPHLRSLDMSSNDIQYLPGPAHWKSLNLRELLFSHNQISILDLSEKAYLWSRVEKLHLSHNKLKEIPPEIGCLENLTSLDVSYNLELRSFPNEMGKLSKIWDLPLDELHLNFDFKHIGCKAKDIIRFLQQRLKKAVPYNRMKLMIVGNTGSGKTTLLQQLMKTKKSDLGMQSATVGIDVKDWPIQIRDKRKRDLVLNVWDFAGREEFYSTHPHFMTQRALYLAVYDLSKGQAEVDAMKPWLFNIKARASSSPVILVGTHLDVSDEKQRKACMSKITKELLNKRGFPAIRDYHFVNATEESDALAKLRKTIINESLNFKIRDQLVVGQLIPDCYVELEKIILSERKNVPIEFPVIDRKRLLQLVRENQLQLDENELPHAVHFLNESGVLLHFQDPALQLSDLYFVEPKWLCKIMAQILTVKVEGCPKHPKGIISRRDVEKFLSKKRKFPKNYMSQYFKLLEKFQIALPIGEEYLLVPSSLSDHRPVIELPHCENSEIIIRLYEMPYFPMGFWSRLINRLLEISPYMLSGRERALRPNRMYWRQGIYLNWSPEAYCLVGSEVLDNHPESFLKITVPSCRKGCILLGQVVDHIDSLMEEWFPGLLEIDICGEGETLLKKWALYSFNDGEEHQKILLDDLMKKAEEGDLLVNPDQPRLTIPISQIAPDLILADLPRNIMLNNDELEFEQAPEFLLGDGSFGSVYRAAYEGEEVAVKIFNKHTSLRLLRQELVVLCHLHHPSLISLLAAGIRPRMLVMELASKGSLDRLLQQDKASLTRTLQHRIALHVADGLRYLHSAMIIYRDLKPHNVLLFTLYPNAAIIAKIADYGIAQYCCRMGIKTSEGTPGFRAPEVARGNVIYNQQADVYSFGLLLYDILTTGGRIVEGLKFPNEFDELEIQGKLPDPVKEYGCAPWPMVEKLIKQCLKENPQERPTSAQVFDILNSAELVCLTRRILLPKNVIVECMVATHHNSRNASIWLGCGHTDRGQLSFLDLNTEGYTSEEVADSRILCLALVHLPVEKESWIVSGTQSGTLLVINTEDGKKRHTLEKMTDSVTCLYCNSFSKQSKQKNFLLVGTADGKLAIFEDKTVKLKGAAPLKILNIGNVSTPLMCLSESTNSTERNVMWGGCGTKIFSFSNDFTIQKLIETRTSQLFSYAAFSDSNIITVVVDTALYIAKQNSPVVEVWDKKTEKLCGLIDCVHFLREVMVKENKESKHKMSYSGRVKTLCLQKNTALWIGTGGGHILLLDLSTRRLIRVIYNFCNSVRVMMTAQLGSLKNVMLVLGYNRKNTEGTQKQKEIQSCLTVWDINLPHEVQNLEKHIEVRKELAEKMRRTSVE

[2] = biological target: Receptor-type tyrosine-protein kinase FLT3 (Homo sapiens) (UniProt P36888); assay: Inhibition of human FLT3 WT expressed in bacterial system assessed as remaining activity measured at 1 uM by DiscoveRx KINOMEscan assay
BCRP (human) = assay: Apparent permeability in MDCK cells expressing human BCRP; type: ADME, cell-based, Canis lupus familiaris; details: dog
[3] = biological target: T1, Leucine-rich repeat serine/threonine-protein kinase 2; assay: Inhibition of LRRK2 WT expressed in human PBMCs measured by KiNativ profiling analysis
[4] = Volume of distribution in steady state in Beagle dog plasma at 1 mg/kg, IV […]; type: ADME, organism-based, Canis lupus familiaris; details: read-out: Vdss
[5] = biological target: T2, Adenosine receptor A2b (Homo sapiens) (UniProt P29275); assay: Binding affinity to human Adenosine receptor A2b at 1 uM by radioligand binding assay relative to control
T2 sequence (whole entry): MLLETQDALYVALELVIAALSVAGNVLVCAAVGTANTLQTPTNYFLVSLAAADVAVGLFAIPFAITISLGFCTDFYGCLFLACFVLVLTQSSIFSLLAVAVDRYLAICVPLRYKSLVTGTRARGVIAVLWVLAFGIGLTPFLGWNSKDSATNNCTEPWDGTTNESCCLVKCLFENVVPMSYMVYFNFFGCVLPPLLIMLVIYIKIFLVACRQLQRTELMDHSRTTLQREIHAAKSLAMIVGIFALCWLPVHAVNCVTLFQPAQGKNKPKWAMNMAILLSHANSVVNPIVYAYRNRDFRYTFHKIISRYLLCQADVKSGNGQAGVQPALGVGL

[6] = Drug uptake in Mdr1a/ 1b-BCRP knockout C57BL/6 mouse brain at 5 mg/kg, sc and measured after 0.5 hrs; type: ADME, organism-based; details: read-out: Drug uptake
[7] = Binding affinity to human PIP5K2C (M1/A421) WT expressed in mammalian system assessed as dissociation constant measured at 1 uM by DiscoveRx KINOMEscan assay
[8] = Ratio of drug level in C57BL/6 WT mouse brain to plasma at 5 mg/kg, sc and measured after 0.5 hrs; type: ADME, organism-based; details: for Kp at 0.5 h: C57BL/6, mouse, brain and plasma
[9] = Half life in steady state in Beagle dog plasma at 1 mg/kg, IV […]; type: ADME, organism-based, Canis lupus familiaris
[10] = biological target: Phosphatidylinositol 4-kinase beta (Homo sapiens, UniProt Q9UBF8); assay: Inhibition of human PIK4CB (M1/M828) WT expressed in mammalian system assessed as remaining activity measured at 1 uM by DiscoveRx KINOMEscan assay relative to control
[11] = biological target: T3, Leucine-rich repeat serine/threonine-protein kinase 2 (Homo sapiens, UniProt Q5S007, G2019S); assay: Binding affinity to human LRRK2 (H970/E2527) G2019S mutant expressed in mammalian system assessed as dissociation constant measured at 1 uM by DiscoveRx KINOMEscan assay
T3 sequence (Q5S007 whole entry G2019S): as the sequence (Q5S007 whole entry) above, with G2019S counted along it

[12] = biological target: T1, Leucine-rich repeat serine/threonine-protein kinase 2; assay: Inhibition of recombinant human LRRK2 WT using fluorescein-labeled LRRKtide as substrate in presence of ATP preincubated for 50 mins followed by anti-phospho-LRRKtide antibody addition and measured after 30 mins by TR-FRET based Lanthascreen kinase activity assay
P-glycoprotein (human) = assay: Efflux ratio of permeability across basolateral to apical side over apical to basolateral side in MDCK-MDR1 cells expressing human P-glycoprotein; details: dog
[13] = biological target: T4, Interleukin-1 receptor-associated kinase 3 (Homo sapiens) (UniProt Q9Y616); assay: Inhibition of IRAK3 expressed in human PBMCs measured at 10 uM by KiNativ profiling analysis relative to control
T4 sequence (whole entry): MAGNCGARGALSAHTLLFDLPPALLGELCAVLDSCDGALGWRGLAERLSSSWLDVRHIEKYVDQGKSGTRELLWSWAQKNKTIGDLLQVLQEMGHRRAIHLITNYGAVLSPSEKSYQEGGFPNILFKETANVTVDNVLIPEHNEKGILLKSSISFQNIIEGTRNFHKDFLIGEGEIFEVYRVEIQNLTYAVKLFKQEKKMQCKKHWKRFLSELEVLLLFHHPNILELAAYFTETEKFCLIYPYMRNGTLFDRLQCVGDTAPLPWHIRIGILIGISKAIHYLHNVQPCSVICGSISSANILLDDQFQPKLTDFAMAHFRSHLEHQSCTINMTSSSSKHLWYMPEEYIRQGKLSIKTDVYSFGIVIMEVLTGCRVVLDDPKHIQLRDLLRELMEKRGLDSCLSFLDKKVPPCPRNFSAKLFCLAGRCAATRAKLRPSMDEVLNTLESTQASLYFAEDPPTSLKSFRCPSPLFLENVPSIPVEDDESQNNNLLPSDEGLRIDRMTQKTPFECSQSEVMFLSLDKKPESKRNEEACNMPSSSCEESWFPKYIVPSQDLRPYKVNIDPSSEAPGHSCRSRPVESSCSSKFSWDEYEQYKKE

[14] = Mutagenecity in Salmonella enterica subsp. enterica serovar Typhimurium by Ames test; type: toxicity
[15] = Volume of distribution in steady state in Sprague-Dawley rat plasma at 1 mg/kg, IV […]; type: ADME, organism-based; details: read-out: Vdss
[16] = biological target: T3, Leucine-rich repeat serine/threonine-protein kinase 2; assay: Inhibition of recombinant human GST tagged truncated LRRK2 G2019S mutant using fluorescein-labeled LRRKtide as substrate in presence of ATP preincubated for 50 mins followed by anti-phospho-LRRKtide antibody addition and measured after 30 mins by TR-FRET based Lanthascreen kinase activity assay
[17] = Ratio of drug level in Md1a/1b C57BL/6 mouse brain to plasma at 5 mg/kg, sc and measured after 0.5 hrs; type: ADME, organism-based
[18] = biological target: T1, Leucine-rich repeat serine/threonine-protein kinase 2; assay: Binding affinity to human LRRK2 WT expressed in mammalian system assessed as dissociation constant measured at 1 uM by DiscoveRx KINOMEscan assay
[19] = Oral bioavailability in Beagle dog plasma at 2 mg/kg relative to liver blood flow; type: ADME, organism-based, Canis lupus familiaris
[20] = biological target: T3, Leucine-rich repeat serine/threonine-protein kinase 2; assay: Inhibition of LRRK2-pSer935 in LRRK2 G2019S mutant expressing human HEK293 cells and measured after 48 hrs by ICW assay; type: cell-based
[21] = Clearance in Sprague dawley rat plasma at 1 mg/kg, IV relative to liver blood flow; type: ADME, organism-based
[22] = biological target: Leucine-rich repeat serine/threonine-protein kinase 2 (Mus musculus, UniProt Q5S006); assay: Inhibition of LRRK2-WT-pSER935 in C57BL/6 mouse brain at 10 to 150 mg/kg and measured after 1 hrs by western blotting; type: organism-based
Chain of Leucine-rich repeat serine/threonine-protein kinase 2 (Mus musculus, UniProt Q5S006) (Q5S006 whole entry): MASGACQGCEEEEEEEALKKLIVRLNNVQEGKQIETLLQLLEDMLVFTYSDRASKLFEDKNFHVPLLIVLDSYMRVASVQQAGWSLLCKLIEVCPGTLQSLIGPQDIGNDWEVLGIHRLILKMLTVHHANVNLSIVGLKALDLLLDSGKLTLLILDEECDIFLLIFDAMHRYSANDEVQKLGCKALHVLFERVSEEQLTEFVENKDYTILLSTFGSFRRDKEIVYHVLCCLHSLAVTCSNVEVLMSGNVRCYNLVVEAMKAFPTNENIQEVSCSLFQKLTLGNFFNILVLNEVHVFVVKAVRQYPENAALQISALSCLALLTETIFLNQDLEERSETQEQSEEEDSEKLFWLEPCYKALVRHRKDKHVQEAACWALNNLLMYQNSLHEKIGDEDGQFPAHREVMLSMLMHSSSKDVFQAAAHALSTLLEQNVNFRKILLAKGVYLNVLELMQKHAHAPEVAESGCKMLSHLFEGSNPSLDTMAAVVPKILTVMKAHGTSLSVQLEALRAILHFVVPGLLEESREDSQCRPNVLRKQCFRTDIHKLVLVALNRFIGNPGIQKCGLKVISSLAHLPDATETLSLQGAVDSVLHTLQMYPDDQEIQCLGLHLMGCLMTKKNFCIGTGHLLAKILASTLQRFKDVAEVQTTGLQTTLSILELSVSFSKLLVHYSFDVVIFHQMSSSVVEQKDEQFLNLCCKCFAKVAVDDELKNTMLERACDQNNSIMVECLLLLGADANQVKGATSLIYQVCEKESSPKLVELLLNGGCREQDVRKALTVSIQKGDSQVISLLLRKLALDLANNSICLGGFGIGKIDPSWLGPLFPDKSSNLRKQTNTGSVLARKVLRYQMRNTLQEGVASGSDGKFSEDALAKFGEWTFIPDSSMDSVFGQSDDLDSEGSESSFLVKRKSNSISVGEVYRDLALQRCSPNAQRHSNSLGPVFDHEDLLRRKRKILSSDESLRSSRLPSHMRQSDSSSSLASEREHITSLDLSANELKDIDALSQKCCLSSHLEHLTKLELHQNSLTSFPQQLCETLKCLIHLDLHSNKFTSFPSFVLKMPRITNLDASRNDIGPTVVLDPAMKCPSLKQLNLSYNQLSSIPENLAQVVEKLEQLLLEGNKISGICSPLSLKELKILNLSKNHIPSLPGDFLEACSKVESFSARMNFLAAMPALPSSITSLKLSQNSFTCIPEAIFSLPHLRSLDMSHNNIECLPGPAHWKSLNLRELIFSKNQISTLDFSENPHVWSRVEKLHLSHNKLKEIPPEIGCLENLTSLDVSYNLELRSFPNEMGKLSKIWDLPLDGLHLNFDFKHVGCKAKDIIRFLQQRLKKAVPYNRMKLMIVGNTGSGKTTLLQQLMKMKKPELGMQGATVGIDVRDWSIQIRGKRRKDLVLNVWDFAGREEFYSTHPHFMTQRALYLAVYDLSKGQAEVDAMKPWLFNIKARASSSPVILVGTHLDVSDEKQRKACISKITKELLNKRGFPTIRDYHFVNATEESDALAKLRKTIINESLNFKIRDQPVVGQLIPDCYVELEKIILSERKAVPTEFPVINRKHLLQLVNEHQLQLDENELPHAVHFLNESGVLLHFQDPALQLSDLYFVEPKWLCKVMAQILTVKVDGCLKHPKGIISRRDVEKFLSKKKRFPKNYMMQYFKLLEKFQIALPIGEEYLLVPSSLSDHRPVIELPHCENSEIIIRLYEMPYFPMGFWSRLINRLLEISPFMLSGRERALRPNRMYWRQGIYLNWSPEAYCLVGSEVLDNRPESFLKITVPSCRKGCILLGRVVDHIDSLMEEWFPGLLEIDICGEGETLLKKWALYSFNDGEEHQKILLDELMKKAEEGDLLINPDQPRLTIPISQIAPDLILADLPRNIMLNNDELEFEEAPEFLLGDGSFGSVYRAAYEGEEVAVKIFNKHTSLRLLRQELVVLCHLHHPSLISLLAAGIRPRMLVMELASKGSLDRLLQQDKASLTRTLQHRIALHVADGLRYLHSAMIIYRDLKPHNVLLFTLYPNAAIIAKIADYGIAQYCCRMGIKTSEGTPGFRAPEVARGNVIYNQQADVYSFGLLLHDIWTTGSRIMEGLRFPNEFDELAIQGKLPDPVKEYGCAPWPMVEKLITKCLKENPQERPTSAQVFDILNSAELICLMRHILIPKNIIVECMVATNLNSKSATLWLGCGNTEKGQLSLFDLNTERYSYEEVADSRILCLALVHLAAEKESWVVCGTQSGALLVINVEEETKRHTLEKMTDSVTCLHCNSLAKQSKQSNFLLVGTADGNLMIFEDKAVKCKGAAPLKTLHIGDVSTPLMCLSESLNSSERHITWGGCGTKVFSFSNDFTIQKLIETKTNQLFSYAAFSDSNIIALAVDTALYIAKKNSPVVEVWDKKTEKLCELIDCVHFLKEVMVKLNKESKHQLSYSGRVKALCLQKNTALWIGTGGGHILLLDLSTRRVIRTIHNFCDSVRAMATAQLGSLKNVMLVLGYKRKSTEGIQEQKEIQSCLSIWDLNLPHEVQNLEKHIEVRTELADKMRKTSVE

[23] = Ratio of unbound drug level in C57BL/6 WT mouse brain to plasma at 5 mg/kg, sc and measured after 0.5 hrs; type: ADME, organism-based; details: C57BL/6, mouse
[24] = system: Receptor-type tyrosine-protein kinase FLT3 (Homo sapiens), P36888 [UNDEFINED MUTATION]; assay: Inhibition of human FLT3 ITD, D835V (V592/Y969) mutant expressed in bacterial system assessed as remaining activity measured at 1 uM by DiscoveRx KINOMEscan assay relative to control; values are per cent of control

Structure (SMILES) | pIC50 [1] | inhibition [2] | Papp (BCRP (human)) | pIC50 [3] | Vd [4] | inhibition [5] | concentration at 0.5 h [6] | pKd [7] | Kp at 0.5 h [8] | half-life [9] | Activity [10] | pKd [11] | pIC50 [12] | efflux ratio (P-glycoprotein (human)) | inhibition [13] | Activity [14] | Vd [15] | pIC50 [16] | Kp at 0.5 h [17] | pKd [18] | also measured
Cc1c(Nc2nc(N)c3c(C#N)c(N4CCC[C@H]4C)n(C)c3n2)cnn1[C@@H]1CCOC1 | 6.74 | inactive | 0.7 ×10⁻⁶ cm/s | 7.17 | 1 L/kg | 18% | 2060 ng/g | 6.72 | 0.06 | 30 min | < 37% | 8.41 | 7.70 | 1.2 | -6% | Non-Toxic | 1.7 L/kg | 7.92 | 1.05 | 8.43 | Ratio ([8]; mouse, brain, 5 mg/kg, 0.5 h): 0.07; bioavailability [19]: 25%; pIC50 [20]: 7.10; clearance [21]: 158 mL/min/kg; pIC50 [22]: 7.80; Kp uu at 0.5 h [23]: 0.02; residual activity [24]: 25%
Cc1c(Nc2nc(N)c3c(C#N)c(N4CCC[C@H]4C)n(C)c3n2)cnn1[C@H]1CCOC1 | 6.85 | inactive | 1.2 ×10⁻⁶ cm/s | 7.07 | 1.8 L/kg | 26% | 1080 ng/g | 6.37 | 0.15 | 36 min | < 37% | 8.26 | 7.64 | 0.9 | 37% | Non-Toxic | 1.1 L/kg | 7.85 | 0.65 | 8.18 | bioavailability [19]: 96%; pIC50 [20]: 7.29; clearance [21]: 76.7 mL/min/kg; pIC50 [22]: 7.64; Kp uu at 0.5 h [23]: 0.02; residual activity [24]: 1.9%
